# Assay results published in ChEMBL document CHEMBL1134749, “Synthesis and structure-activity relationships of 5-substituted pyridine analogues of 3” (Bioorg Med Chem Lett, 2001).
# Molecular target: Nicotinic acetylcholine receptor alpha3/betaX
# Assay: (§1) Antagonistic activity against neuronal nicotinic acetylcholine receptor (alpha3-betaX subunit) in IMR 32 cell line using 100 uM of (-)-nicotine as agonist
# Format: functional, cell-based, Homo sapiens
row,SMILES,EC50
1,CN1CCC[C@H]1COc1cncc(-c2cncnc2)c1,32.4 µM

# Molecular target: Nicotinic acetylcholine receptor alpha3/betaX
# Assay: as §1
# Format: functional, cell-based
row,SMILES,IC50
1,CN1CCC[C@H]1COc1cncc(-c2cc3ccccc3n2C)c1,6.1 µM
2,CN1CCC[C@H]1COc1cncc(-c2ccc(F)c(Cl)c2)c1,7.3 µM
3,CN1CCC[C@H]1COc1cncc(/C=C/c2ccncc2)c1,7.6 µM
4,CN1CCC[C@H]1COc1cncc(-c2cccs2)c1,1.7 µM
5,CN1CCC[C@H]1COc1cncc(-c2ccc(Cl)cc2)c1,1.99 µM
6,COc1ccc(-c2cncc(OC[C@@H]3CCCN3C)c2)cc1,6.97 µM
7,CN1CCC[C@H]1COc1cncc(-c2ccc(C(F)(F)F)cc2)c1,5.71 µM
8,CN1CCC[C@H]1COc1cncc(-c2ccc(Cl)cc2Cl)c1,0.89 µM
9,CN1CCC[C@H]1COc1cncc(-c2cccc(N)c2)c1,6.9 µM
10,CN1CCC[C@H]1COc1cncc(-c2ccc(F)cc2)c1,6.48 µM
11,CN1CCC[C@H]1COc1cncc(-c2cc(C(F)(F)F)cc(C(F)(F)F)c2)c1,2.35 µM
12,Cc1ccccc1-c1cncc(OC[C@@H]2CCCN2C)c1,1.25 µM
13,CN1CCC[C@H]1COc1cncc(CCc2ccccc2)c1,1.1 µM
14,CN1CCC[C@H]1COc1cncc(-c2cccc([N+](=O)[O-])c2)c1,2.33 µM
15,CN1CCC[C@H]1COc1cncc(-c2cccc3ccccc23)c1,0.69 µM
16,CN1CCC[C@H]1COc1cncc(-c2ccco2)c1,7.9 µM
17,CN1CCC[C@H]1COc1cncc(C#Cc2ccccc2)c1,0.79 µM
18,CN1CCC[C@H]1COc1cncc(-c2cc3ccccc3o2)c1,2.9 µM
19,CN1CCC[C@H]1COc1cncc(CCc2ccncc2)c1,6.3 µM
20,CN1CCC[C@H]1COc1cncc(-c2ccccc2)c1,5.1 µM
21,Cc1ccc(C#Cc2cncc(OC[C@@H]3CCCN3C)c2)cc1,1.5 µM
22,CN1CCC[C@H]1COc1cncc(-c2cccnc2)c1,24.7 µM
23,CN1CCC[C@H]1COc1cncc(/C=C/c2ccccc2)c1,4.8 µM
24,CN1CCC[C@H]1COc1cncc(-c2ccc3ccccc3c2)c1,3.4 µM
25,CN1CCC[C@H]1COc1cncc(-c2cnc3ccccc3c2)c1,5.1 µM
26,CN1CCC[C@H]1COc1cncc(-c2ccccc2C=O)c1,6.31 µM
27,Cc1ccc(-c2cncc(OC[C@@H]3CCCN3C)c2)cc1,0.8 µM

# Molecular target: Neuronal acetylcholine receptor; alpha4/beta2 (Rattus norvegicus, UniProt P09483+P12390)
# Assay: In vitro ability to displace [3H](-)-cytisine binding to whole rat brain membranes at Nicotinic acetylcholine receptor alpha4-beta2
# Parameters: species or system Membrane
# Neuronal acetylcholine receptor; alpha4/beta2, sequence (P09483 whole entry): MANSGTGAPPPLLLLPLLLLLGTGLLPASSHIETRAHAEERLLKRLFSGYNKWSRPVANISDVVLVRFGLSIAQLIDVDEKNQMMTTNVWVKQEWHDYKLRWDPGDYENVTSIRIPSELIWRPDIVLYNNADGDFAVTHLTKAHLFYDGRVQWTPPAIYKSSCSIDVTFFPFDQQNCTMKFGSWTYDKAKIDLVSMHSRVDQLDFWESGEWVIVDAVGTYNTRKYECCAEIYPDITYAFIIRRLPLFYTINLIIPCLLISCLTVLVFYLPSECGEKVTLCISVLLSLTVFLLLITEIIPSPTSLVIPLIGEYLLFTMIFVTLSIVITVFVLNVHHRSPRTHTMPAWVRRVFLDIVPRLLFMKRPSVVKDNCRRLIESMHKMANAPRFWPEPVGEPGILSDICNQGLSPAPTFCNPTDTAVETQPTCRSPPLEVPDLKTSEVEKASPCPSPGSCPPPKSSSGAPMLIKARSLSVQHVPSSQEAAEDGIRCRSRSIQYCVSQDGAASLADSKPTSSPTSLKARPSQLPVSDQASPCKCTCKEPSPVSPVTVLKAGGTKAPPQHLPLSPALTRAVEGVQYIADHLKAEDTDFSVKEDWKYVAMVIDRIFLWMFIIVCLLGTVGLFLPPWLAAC
# Neuronal acetylcholine receptor; alpha4/beta2, sequence (P12390 whole entry): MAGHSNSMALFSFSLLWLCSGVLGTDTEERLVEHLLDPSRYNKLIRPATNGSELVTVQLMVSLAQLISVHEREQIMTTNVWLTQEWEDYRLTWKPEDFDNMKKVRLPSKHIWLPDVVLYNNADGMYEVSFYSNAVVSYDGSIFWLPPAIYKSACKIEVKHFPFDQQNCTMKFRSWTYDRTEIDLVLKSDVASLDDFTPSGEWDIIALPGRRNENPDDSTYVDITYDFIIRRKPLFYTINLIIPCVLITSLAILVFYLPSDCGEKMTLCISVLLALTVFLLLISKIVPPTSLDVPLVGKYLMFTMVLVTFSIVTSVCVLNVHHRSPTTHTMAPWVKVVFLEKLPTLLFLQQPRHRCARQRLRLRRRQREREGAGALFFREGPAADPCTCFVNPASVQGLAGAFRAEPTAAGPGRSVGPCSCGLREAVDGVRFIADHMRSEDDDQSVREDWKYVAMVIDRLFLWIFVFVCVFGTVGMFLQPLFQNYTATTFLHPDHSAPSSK
row,SMILES,Ki
1,CN1CCC[C@H]1COc1cncc(/C=C/c2ccncc2)c1,0.12 nM
2,CN1CCC[C@H]1COc1cncc(-c2cncnc2)c1,0.37 nM
3,CN1CCC[C@H]1COc1cncc(-c2cc3ccccc3o2)c1,0.15 nM
4,Cc1ccc(C#Cc2cncc(OC[C@@H]3CCCN3C)c2)cc1,0.31 nM

# Molecular target: Nicotinic acetylcholine receptor alpha3/betaX (Homo sapiens) (UniProt P11230+P17787+P30926+P32297+Q05901)
# Assay: Antagonistic activity against Nicotinic acetylcholine receptor (alpha3-betaX subunit) in IMR 32 cell line using 100 uM of (-)-nicotine as agonist
# Format: functional, cell-based
row,SMILES,Max efficacy
1,CN1CCC[C@H]1COc1cncc(-c2cncnc2)c1,38.9%
